Laboratory results as given in ChEMBL document CHEMBL4270556, “Current progress on antioxidants incorporating the pyrazole core” (Eur J Med Chem, 2018).
Converted amounts (≈) assume the structure as drawn.

Key:
[1] = Antioxidant activity assessed as radical scavenging activity at 30 to 50 ug/ml relative to control; format: functional
[2] = Antioxidant activity assessed as DPPH radical scavenging activity at 10^-3 M relative to control; format: functional
[3] = Antioxidant activity assessed as inhibition of lipid peroxidation relative to control; format: functional; conditions: dose or concentration not given here
[4] = Antioxidant activity assessed as DPPH radical scavenging activity after 20 mins by UV absorbance method relative to control; format: functional
[5] = Antioxidant activity assessed as DPPH radical scavenging activity at 100 mM after 30 mins relative to control; format: functional
[6] = Antioxidant activity assessed as nitric oxide radical scavenging activity at 100 mM after 150 mins in presence of sodium nitroprusside relative to control; format: functional
[7] = Antioxidant activity assessed as radical scavenging activity; format: functional
[8] = Antioxidant activity assessed as DPPH radical scavenging activity at 30 to 50 ug/ml relative to control; format: functional
[9] = Antioxidant activity assessed as DPPH radical scavenging activity at 4 mM relative to control; format: functional
[10] = Antioxidant activity assessed as ferric ion reducing activity after 20 mins in presence of potassium ferricyanide by FRAP assay relative to control; format: functional; design: scale not given: the % may be the effect or the level left
[11] = Antioxidant activity assessed as DPPH radical scavenging activity at 10 ug/ml after 20 mins by UV absorbance method relative to control; format: functional
[12] = Antioxidant activity assessed as inhibition of DPPH radical at 100 ug/ml relative to control; format: functional
[13] = system: THP-1; assay: Antioxidant activity in human THP1 cells assessed as inhibition of macrophage-mediated LDL oxidation after 24 hrs in presence of CuSO4 by TBARS assay; format: functional, cell-based; conditions: THP-1, 24 h
[14] = Antioxidant activity assessed as DPPH radical scavenging activity at 80 ug/ml relative to control; format: functional
[15] = Antioxidant activity assessed as DPPH radical scavenging activity at 40 ug/ml relative to control; format: functional
[16] = Antioxidant activity assessed as DPPH radical scavenging activity at 60 ug/ml relative to control; format: functional
[17] = Antioxidant activity assessed as DPPH radical scavenging activity at 20 ug/ml relative to control; format: functional
[18] = Antioxidant activity assessed as hydroxyl radical scavenging activity; format: functional
[19] = Antioxidant activity assessed as inhibition of lipid peroxidation; format: functional
[20] = Antioxidant activity assessed as inhibition of H2O2-induced lipid peroxidation; format: functional

O=C1[C@H]2C(c3ccccc3)=NN(c3ccccc3)[C@H]2C(=O)N1c1ccc(Cl)cc1
Activity [1]: < 40%

NS(=O)(=O)c1ccc(-n2nc(-c3cccs3)cc2-c2cnn(-c3ccccc3)c2)cc1
Activity [2]: 12%

c1ccc(C2=NN(c3ccccc3)C(Cn3cnc4c(N5CCCC5)ncnc43)C2)cc1 (configuration not stated)
inhibition [3]: 73% | Activity [4]: 13 to 24%

Cc1ccc(-n2nc(-c3ccccc3)cc2Cn2cnc3c(Cl)ncnc32)cc1
Activity [4]: 60%

Nc1n[nH]c(-c2ccccc2)c1-c1nc2c(cnn2-c2ccccc2)c(=O)[nH]1
Activity: 92.3%

O=C(/C=C/c1cn(-c2ccccc2)nc1-c1ccc(F)cc1)c1cccc(NC(=O)c2ccc(F)cc2)c1
Activity [5]: 33.3% | Activity [6]: 32.4 to 77.9%

Nc1[nH]nc(NCc2ccccc2)c1-c1ccc([N+](=O)[O-])cc1
IC50 [7]: 800 µg/mL (≈ 2590 µM)

O=C1[C@H]2C(c3ccc(Cl)cc3)=NN(c3ccccc3)[C@H]2C(=O)N1c1ccccc1
Activity [1]: < 40%

Cc1ccc(-n2nc(-c3ccccc3)cc2Cn2cnc3c(N4CCCC4)ncnc32)cc1
inhibition [3]: 87% | Activity [4]: 43 to 44%

COc1ccc(C2C(c3ccc(OC)c(OC)c3)=NN(c3ccccc3)C2C#N)cc1 (configuration not stated)
Activity [8]: 32%

O=[N+]([O-])c1cccc(C2Nc3ccccc3-c3cc(-c4ccccc4)nn32)c1 (configuration not stated)
Activity [9]: 96%

O=C1O[C@H]([C@@H](O)CO)C(O)=C1O
Activity [10]: 42.4% | Activity [5]: 43% | Activity [6]: 32.3% | Activity [11]: 40% | Activity: 92.7% | inhibition [12]: 28.6%

O=C(c1ccc(Cl)cc1)N1N=C(Cn2c3ccccc3c3nc4cc(Cc5ccc6nc(-c7ccccc7)c(-c7ccccc7)nc6c5)ccc4nc32)CC1c1ccc(F)cc1 (configuration not stated)
Activity [11]: 40.6%

Cc1ccc(N2N=C(c3ccccc3)CC2Cn2cnc3c(Cl)ncnc32)cc1 (configuration not stated)
inhibition [3]: 58% | Activity [4]: 20%

CC(C)(C)c1cc(C2=NNC(c3cc(C(C)(C)C)c(O)c(C(C)(C)C)c3)C2)cc(C(C)(C)C)c1O (configuration not stated)
IC50 [13]: 0.1 µM

CCOC(=O)C1=C(N)Oc2c(c(C)nn2C(=O)c2ccncc2)C1c1c(-c2ccc(C)cc2)[nH]c2ccccc12 (configuration not stated)
Activity [14]: 76.1% | Activity [15]: 79.6% | Activity [16]: 76.1% | Activity [17]: 80.1%

CCOC(=O)c1c(C)nn(-c2cccc(Cl)c2)c1-c1ccc([N+](=O)[O-])cc1
inhibition [12]: 22.2 to 49.9%

Cc1ccc(-c2cc(C(F)(F)F)nn2-c2ccc(S(N)(=O)=O)cc2)cc1 [CELECOXIB]
IC50 [18]: 1970 µM | IC50 [19]: 1990 µM

COc1ccc(C2CC(Cn3c4ccccc4c4nc5cc(Cc6ccc7nc(-c8ccccc8)c(-c8ccccc8)nc7c6)ccc5nc43)=NN2C(=O)c2ccccc2)cc1 (configuration not stated)
Activity [11]: 50.5%

O=C(/C=C/c1cn(-c2ccccc2)nc1-c1ccc(Cl)cc1)c1cccc(NC(=O)c2ccc(F)cc2)c1
Activity [10]: 44.4 to 55.5% | Activity [6]: 32.4 to 77.9%

O=C1[C@H]2C(c3ccccc3)=NN(c3ccccc3)[C@H]2C(=O)N1c1ccccc1
Activity [1]: < 55%

COc1ccc(C2C(c3ccco3)=NN(c3ccccc3)C2C#N)cc1 (configuration not stated)
Activity [8]: < 45%

COc1ccc(C2=NN(c3ccccc3)C(C#N)C2c2ccc(OC)cc2)cc1 (configuration not stated)
Activity [8]: < 45%

Cc1ccc(-n2nc(-c3ccccc3)cc2Cn2cnc3c(N4CCOCC4)ncnc32)cc1
inhibition [3]: 99% | Activity [4]: 62 to 79%

O=C(/C=C/c1cn(-c2ccccc2)nc1-c1ccccc1)c1cccc(NC(=O)c2ccc(F)cc2)c1
Activity [10]: 44.4 to 55.5% | Activity [5]: 36.8 to 42.3% | Activity [6]: 32.4 to 77.9%

CC1=NN(C(=O)c2ccccc2O)C(O)(C(F)(F)F)C1 (configuration not stated)
IC50 [20]: < 15 µM

Cc1ccc(-c2nn(-c3ccccc3)cc2/C=C/C(=O)c2cccc(NC(=O)c3ccc(F)cc3)c2)cc1
Activity [10]: 44.4 to 55.5% | Activity [5]: 36.8 to 42.3% | Activity [6]: 32.4 to 77.9%

COc1ccc(-c2nn(-c3ccccc3)cc2/C=C/C(=O)c2cccc(NC(=O)c3ccc(F)cc3)c2)cc1
Activity [10]: 44.4 to 55.5% | Activity [6]: 32.4 to 77.9%

CCOC(=O)C1=C(N)Oc2c(c(C)nn2C(=O)c2ccncc2)C1c1c(-c2ccccc2)[nH]c2ccccc12 (configuration not stated)
Activity [14]: 70.2% | Activity [15]: 66.6 to 76.1% | Activity [16]: 74.5%

Cc1c(C)c2c(c(C)c1O)CCC(C)(C(=O)O)O2 (configuration not stated)
inhibition [3]: 64%

COc1ccc(C2C(c3ccc(C#N)cc3)=NN(c3ccccc3)C2C#N)cc1 (configuration not stated)
Activity [8]: < 60%

COc1ccc(C2C(c3ccc(F)cc3)=NN(c3ccccc3)C2C#N)cc1 (configuration not stated)
Activity [8]: < 60%

NS(=O)(=O)c1ccc(N2N=C(c3cccs3)CC2c2cnn(-c3ccccc3)c2)cc1 (configuration not stated)
Activity [2]: 29%

CCOC(=O)c1c(C)nn(-c2cccc(Cl)c2)c1-c1ccc(Cl)cc1
inhibition [12]: 22.2 to 49.9%

COc1ccc(C2C(c3ccc(Br)cc3)=NN(c3ccccc3)C2C#N)cc1 (configuration not stated)
Activity [8]: < 60%
